Reference: patent US9850227B2 (YUHAN CORPORATION, priority 2011, dated 2017)
Structures can show the parent of a compound that is named as a salt.

Molecular target: T1, human 5-HT4(a) (Homo sapiens, UniProt Q13639)
T1 construct: host or cells: GeneBIAzer HTR4-CRE-bla CHO-K1 cells
Test: Evaluation of agonistic activity in CHO-K1 cells expressing human 5-HT4(a) (GeneBIAzer HTR4-CRE-bla CHO-K1 cells, beta-lactamase fluorescence ratio, EC50 from 8 concentrations)
Type: cell-based
Description: Evaluation of Agonistic Activity in CHO-K1 Cells Expressing Human 5-HT4(a)
As CHO-K1 cells stably expressing human 5-HT4(a), we used the GeneBIAzer HTR4-CRE-bla CHO-K1 cells (Invitrogen Corp.). The cells were cultured, under the condition of 37° C. and 5% CO2, in a DMEM supplemented with 10% fetal bovine serum (FBS), 25 mM HEPES (pH7.4), 600 μg/ml hygromycin B, 0.1 mM non-essential amino acids, 100 unit/ml penicillin and 100 μg/ml streptomycin. Subcultures were performed three times per one week, each being at less than 80% confluence. At the previous day before treating test compounds, the cells were collected using 0.5% trypsin/EDTA and then diluted with a DMEM supplemented with 1% FBS, 25 mM HEPES, and 0.1 mM non-essential amino acids into 3.125×10^5 cells/ml. 32 μl of the diluted cells were added into 384-well plate (10^4 cells per well) and then incubated overnight. After the overnight culture, 8 μl of the medium having 1% of DMSO was added into the cell-free control well and the non-stimulating control well, respectively. 8 μl of the respective test compound dilutions (which had been prepared by diluting by 100-times with the medium as mentioned in the above) having 1% of DMSO were added to the respective remaining wells. After being cultured in the incubator for 5 hours, the wells of the 384-plate were treated with the substrate solution (8 μl per well) prepared according to the vendor's instruction (i.e., Invitrogen's instruction), and then incubated in the dark room for additional two hours. Agonistic activities on 5-HT4 receptor were evaluated, on the basis of fluorescence values of the cleavage-products by beta-lactamase. After exciting to 410 nm of wavelength using a fluorescence detector (Genios Pro), we measured the fluorescence values at two emission wavelengths (first wavelength: 465 nm, second wavelength: 535 nm). Data were analyzed on the basis of the ratio of fluorescence intensities of each well at the respective wavelengths. Each EC50 value was calculated by non-linear regression analysis using the “GraphPad Prism” program, based on the activities according to 8-different concentrations of the test compounds.

T1 sequence (Q13639 1-387 isoform Q13639-2): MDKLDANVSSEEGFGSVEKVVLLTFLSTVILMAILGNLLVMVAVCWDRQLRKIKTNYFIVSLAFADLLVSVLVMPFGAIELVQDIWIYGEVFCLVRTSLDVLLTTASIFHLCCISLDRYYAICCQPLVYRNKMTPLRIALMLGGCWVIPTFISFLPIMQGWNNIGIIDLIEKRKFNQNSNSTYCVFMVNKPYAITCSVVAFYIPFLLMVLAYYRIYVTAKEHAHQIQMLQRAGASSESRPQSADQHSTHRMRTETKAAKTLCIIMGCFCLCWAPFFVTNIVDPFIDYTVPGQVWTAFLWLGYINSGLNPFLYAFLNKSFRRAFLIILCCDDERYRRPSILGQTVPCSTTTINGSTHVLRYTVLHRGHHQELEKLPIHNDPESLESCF

Row | SMILES | EC50
1 | CCCc1cc(N2CCCC3CCCCC32)nc(Nc2cccc(OC)c2)n1 (centres unmarked) [Example 191, N-(3-methoxyphenyl)-4-(octahydroquinolin-1(2H)-yl)-6-propylpyrimidin-2-amine] | 0.34 nM
2 | CCCc1cc(N2CCCC3CCCCC32)nc(Nc2cccc(SC)c2)n1 (centres unmarked) [Example 198, N-(3-methylthiophenyl)-4-(octahydroquinolin-1(2H)-yl)-6-propylpyrimidin-2-amine] | 0.4 nM
3 | CCCc1cc(N2CCCC3CCCCC32)nc(Nc2ccc3[nH]c(C(F)(F)F)nc3c2)n1 (centres unmarked) [Example 200, N-[4-(octahydroquinolin-1(2H)-yl)-6-propylpyrimidin-2-yl]-2-(trifluoromethyl)-1H-benzo[d]imidazol-5-amine] | 0.18 nM
4 | CCCc1cc(N2CCCC3CCCCC32)nc(Nc2cnc3ccccc3c2)n1 (centres unmarked) [Example 203, N-[4-(octahydroquinolin-1(2H)-yl)-6-propylpyrimidin-2-yl]quinolin-3-amine] | 0.14 nM
5 | CCCc1cc(N2CCC[C@@H](NCC)C2)nc(Nc2ccc(C)c(C#N)c2)n1 [Example 205, (R)-5-{4-[3-(ethylamino)piperidin-1-yl]-6-propylpyrimidin-2-ylamino}-2-methylbenzonitrile] | 0.008 nM
6 | CCCN[C@@H]1CCCN(c2cc(CCC)nc(Nc3ccc(C)c(C#N)c3)n2)C1 [Example 206, (R)-5-{4-[3-(propylamino)piperidin-1-yl]-6-propylpyrimidin-2-ylamino}-2-methylbenzonitrile] | 0.0087 nM
7 | CCCCN[C@@H]1CCCN(c2cc(CCC)nc(Nc3ccc(C)c(C#N)c3)n2)C1 [Example 207, (R)-5-{4-[3-(butylamino)piperidin-1-yl]-6-propylpyrimidin-2-ylamino}-2-methylbenzonitrile] | 0.013 nM
8 | CCCCCN[C@@H]1CCCN(c2cc(CCC)nc(Nc3ccc(C)c(C#N)c3)n2)C1 [Example 208, (R)-2-methyl-5-{4-[3-(pentylamino)piperidin-1-yl]-6-propylpyrimidin-2-ylamino}benzonitrile] | 0.029 nM
9 | CCCc1cc(N2CCC[C@@H](NCC(C)C)C2)nc(Nc2ccc(C)c(C#N)c2)n1 [Example 209, (R)-5-{4-[3-(isobutylamino)piperidin-1-yl]-6-propylpyrimidin-2-ylamino}-2-methylbenzonitrile] | 0.015 nM
10 | CCCc1cc(N2CCC[C@@H](NCCC(C)C)C2)nc(Nc2ccc(C)c(C#N)c2)n1 [Example 210, (R)-5-{4-[3-(isopentylamino)piperidin-1-yl]-6-propylpyrimidin-2-ylamino}-2-methylbenzonitrile] | 0.022 nM
11 | CCCc1cc(N2CCC[C@@H](NCC(C)(C)C)C2)nc(Nc2ccc(C)c(C#N)c2)n1 [Example 211, (R)-2-methyl-5-{4-[3-(neopentylamino)piperidin-1-yl]-6-propylpyrimidin-2-ylamino}benzonitrile] | 0.023 nM
12 | CCCc1cc(N2CCC[C@@H](NC(C)C)C2)nc(Nc2ccc(C)c(C#N)c2)n1 [Example 212, (R)-5-{4-[3-(isopropylamino)piperidin-1-yl]-6-propylpyrimidin-2-ylamino}-2-methylbenzonitrile] | 0.1 nM
13 | CCCc1cc(N2CCC[C@@H](NCc3cccs3)C2)nc(Nc2ccc(C)c(C#N)c2)n1 [Example 214, (R)-2-methyl-5-(4-propyl-6-{3-[(thiophen-2-ylmethyl)amino]piperidin-1-yl}pyrimidin-2-ylamino)benzonitrile] | 0.072 nM
14 | CCCc1cc(N2CCC[C@@H](NCc3cc(C)c(C)o3)C2)nc(Nc2ccc(C)c(C#N)c2)n1 [Example 215, (R)-5-(4-{3-[(4,5-dimethylfuran-2-ylmethyl)amino]piperidin-1-yl}-6-propylpyrimidin-2-ylamino)-2-methylbenzonitrile] | 0.064 nM
15 | CCCc1cc(N2CCC[C@@H](NCCCSC)C2)nc(Nc2ccc(C)c(C#N)c2)n1 [Example 216, (R)-2-methyl-5-{4-[3-(3-methylthiopropylamino)piperidin-1-yl]-6-propylpyrimidin-2-ylamino}benzonitrile] | 0.016 nM
16 | CCCc1cc(N2CCC[C@@H](NCC3CC3)C2)nc(Nc2ccc(C)c(C#N)c2)n1 [Example 217, (R)-5-{4-[3-(cyclopropylmethylamino)piperidin-1-yl]-6-propylpyrimidin-2-ylamino}-2-methylbenzonitrile] | 0.013 nM

Row | SMILES | EC50
17 | CCCc1cc(N2CCC[C@@H](NCC3CCCC3)C2)nc(Nc2ccc(C)c(C#N)c2)n1 [Example 218, (R)-5-{4-[3-(cyclopentylmethylamino)piperidin-1-yl]-6-propylpyrimidin-2-ylamino}-2-methylbenzonitrile] | 0.016 nM
18 | CCCc1cc(N2CCC[C@@H](NCc3ccc(O)cc3)C2)nc(Nc2ccc(C)c(C#N)c2)n1 [Example 219, (R)-5-{4-[3-(4-hydroxybenzylamino)piperidin-1-yl]-6-propylpyrimidin-2-ylamino}-2-methylbenzonitrile] | 0.01 nM
19 | CCCc1cc(N2CCC[C@@H](NC(C)=O)C2)nc(Nc2ccc(C)c(C#N)c2)n1 [Example 220, (R)—N-{1-[2-(3-cyano-4-methylphenylamino)-6-propylpyrimidin-4-yl]piperidin-3-yl}acetamide] | 0.0082 nM
20 | CCCc1cc(N2CCC[C@@H](N)C2)nc(Nc2cccc(C#N)c2)n1 [Example 221, (R)-3-[4-(3-aminopiperidin-1-yl)-6-propylpyrimidin-2-ylamino]benzonitrile dihydrochloride] | 0.122 nM
21 | CCCc1cc(N2CCC[C@@H](N)C2)nc(Nc2ccc(F)c(C#N)c2)n1 [Example 222, (R)-5-[4-(3-aminopiperidin-1-yl)-6-propylpyrimidin-2-ylamino]-2-fluorobenzonitrile dihydrochloride] | 0.056 nM
22 | CCCN[C@@H]1CCCN(c2cc(CCC)nc(Nc3cccc(C#N)c3)n2)C1 [Example 223, (R)-3-{4-[3-(propylamino)piperidin-1-yl]-6-propylpyrimidin-2-ylamino}benzonitrile] | 0.045 nM
23 | CCCc1cc(N2CCC[C@@H](NCC3CC3)C2)nc(Nc2cccc(C#N)c2)n1 [Example 224, (R)-3-{4-[3-(cyclopropylmethylamino)piperidin-1-yl]-6-propylpyrimidin-2-ylamino}benzonitrile] | 0.07 nM
24 | CCCN[C@@H]1CCCN(c2cc(CCC)nc(Nc3ccc(F)c(C#N)c3)n2)C1 [Example 225, (R)-2-fluoro-5-{4-[3-(propylamino)piperidin-1-yl]-6-propylpyrimidin-2-ylamino}benzonitrile] | 0.021 nM
25 | CCCc1cc(N2CCC[C@@H](NCC3CC3)C2)nc(Nc2ccc(F)c(C#N)c2)n1 [Example 226, (R)-5-{4-[3-(cyclopropylmethylamino)piperidin-1-yl]-6-propylpyrimidin-2-ylamino}-2-fluorobenzonitrile] | 0.071 nM
26 | CCCc1cc(N2CCC[C@@H](NCC3CC3)C2)nc(Nc2ccc(F)c(N)c2)n1 [Example 227, (R)—N^1-{4-[3-(cyclopropylmethylamino)piperidin-1-yl]-6-propylpyrimidin-2-yl}-4-fluorobenzene-1,3-diamine] | 0.017 nM
27 | CCCc1cc(N2CCC[C@@H](NCC3CC3)C2)nc(Nc2ccc(N)c([N+](=O)[O-])c2)n1 [Example 228, (R)—N^1-{4-[3-(cyclopropylmethylamino)piperidin-1-yl]-6-propylpyrimidin-2-yl}-3-nitrobenzene-1,4-diamine] | 0.0035 nM
28 | CCCc1cc(N2CCC[C@@H](NCC3CC3)C2)nc(Nc2cc(N)cc(C#N)c2)n1 [Example 229, (R)-3-amino-5-{4-[3-(cyclopropylmethylamino)piperidin-1-yl]-6-propylpyrimidin-2-ylamino}benzonitrile] | 0.0041 nM
29 | CCCc1cc(N2CCC[C@@H](NCC3CC3)C2)nc(Nc2ccc(N)c(C(F)(F)F)c2)n1 [Example 230, (R)—N^1-{4-[3-(cyclopropylmethylamino)piperidin-1-yl]-6-propylpyrimidin-2-yl}-3-(trifluoromethyl)benzene-1,4-diamine] | 0.0046 nM
30 | CCCc1cc(N2CCC[C@@H](NCC3CC3)C2)nc(Nc2cc(N)cc(C(F)(F)F)c2)n1 [Example 231, (R)—N^1-{4-[3-(cyclopropylmethylamino)piperidin-1-yl]-6-propylpyrimidin-2-yl}-5-(trifluoromethyl)benzene-1,3-diamine] | 0.0063 nM
31 | CCCCc1cc(N2CCC[C@@H](NC(C)=O)C2)nc(Nc2ccc(N)c([N+](=O)[O-])c2)n1 [Example 232, (R)—N-{1-[2-(4-amino-3-nitrophenylamino)-6-butylpyrimidin-4-yl]piperidin-3-yl}acetamide] | 0.0037 nM
32 | CCCCc1cc(N2CCC[C@@H](NC(C)=O)C2)nc(Nc2ccc(C)c([N+](=O)[O-])c2)n1 [Example 233, (R)—N-{1-[6-butyl-2-(4-methyl-3-nitrophenylamino)pyrimidin-4-yl]piperidin-3-yl}acetamide] | 0.009 nM
